Patent US12570612B2, “Substituted nitrogen heterocyclic compound and anesthetic effect thereof” (priority 2019, dated 2026)
“Also recorded” adds a separate entry of the source. Where two headings read alike, the source gives them in different places.

Key:
Sprague-Dawley rats [1] = test: animal or person; format: in vivo
Source text: Evaluating indicator: The end point of anesthesia: the disappearance of forepaw righting reflex (lorr) was used as the end point of anesthesia; General anesthesia effect: the disappearance of forepaw righting reflex in rats lasting for 30 seconds is taken as the index of general anesthesia effect; Anesthesia recovery index: the recovery of rat forepaw righting reflex was used as the index of anesthesia recovery.

Sprague-Dawley rats [2] = test: Pharmacological effect and adverse reactions under the equivalent dose (2ED50), Group C compounds; format: in vivo; conditions: rat, in vivo
Source text: (§1) Evaluation index: onset time: from the completion of drug injection to the disappearance of forepaw righting reflex in rats; Duration of anesthesia: the time from the disappearance of rat forepaw righting reflex to the recovery of rat forepaw righting reflex; Recovery time of anesthesia: the time from the […] to complete recovery;

H295R cell line [3] = test: Adrenocortical function in vitro test: secretion of cortisol and corticosterone, Group B compounds; format: cell-based; conditions: H295R cells; for EC50: Homo sapiens, NCI-H295R, 0.1-10000 nM, HPLC-MS/MS
Sprague-Dawley rats [4] = test: animal or person
Procedure: (§2) Adult male Sprague-Dawley rats (250-300 g) were selected for the experiment. […] The anesthesia effects of the compounds were assessed in rats using a LORR assay and a period >30 s was considered as an indicator of general anesthesia.

[5] = tested on: circulatory function of rats; conditions: rat, in vivo
Procedure: First, animal models were established. […] At least one week after surgery, data were recorded.
Finally, the pharmacological effects, adverse reactions, and behavioral manifestations of the rats were observed and recorded
After data acquisition, the test was stopped.

H295R cell line [6] = test: Adrenocortical function in vitro test: secretion of cortisol and corticosterone, Group A compounds; format: cell-based; conditions: H295 cells; for EC50: Homo sapiens, 0.1-10000 nM, HPLC-MS/MS
Sprague-Dawley rats [7] = test: animal or person; remark: listed apart in the source
Procedure: as §2

[8] = tested on: circulatory function of rats; test: Circulatory function of rats (MAP, HR) by implanted telemetry, Group C compounds; conditions: 2ED50, rats, FIG. 13-16
Source text: (§3) First, the animal model was established, and the left ventricular catheter, abdominal aorta catheter and electrocardiogram wire were placed. At least one week after the operation, the signal can be collected to start the test. At the beginning of the experiment, after the placement of the indwelling needle in the tail vein of rats, connect the extension tube, put the rats together with the feeding cage on the signal receiver and start collecting data. […] All compounds or drugs were given at a constant volume of 0.6 ml at a uniform rate of 0.1 ml/s.

Sprague-Dawley rats [9] = test: Pharmacological effect and adverse reactions under the equivalent dose (2ED50), Group D compounds; format: in vivo; conditions: rat, in vivo
Source text: as §1

[10] = tested on: circulatory function of rats; conditions: rat, in vivo; remark: listed apart in the source
[11] = tested on: circulatory function of rats; test: Circulatory function of rats (MAP, HR) by implanted telemetry, Group D compounds; conditions: 2ED50, rats, FIG. 19-22
Source text: as §3
Evaluation indexes: Collect the blood pressure, heart rate and other data of rats during and 15 minutes after administration, and judge the effect of the compound of the invention on the circulatory function of rats with the indexes of mean arterial pressure (MAP) and heart rate (HR).

Sprague-Dawley rats [12] = test: Pharmacological characteristics at equivalent doses (2ED50), Group A compounds; format: in vivo; conditions: 2ED50, tail vein
Sprague-Dawley rats [13] = test: animal or person; format: in vivo; remark: listed apart in the source
Source text: Evaluating indicator: The end point of anesthesia: LORR was used as the end point of anesthesia; General anesthesia effect: the disappearance of forepaw righting reflex in rats lasting for 30 seconds is taken as the index of general anesthesia effect; Anesthesia recovery index: the recovery of rat forepaw righting reflex was used as the index of anesthesia recovery.

[14] = male, Sprague-Dawley, rat, in vivo
[15] = read-out: EC50 (Corticosterone)

CC(C)c1cccc(C(C)C)c1O [Propofol, propofol, reference compound]
ED50 (Sprague-Dawley rats [1]; Rattus norvegicus): 5.01 mg/kg | Minimal lethal dose (Sprague-Dawley rats [1]; [14]): 22.6 mg/kg | Approximate therapeutic index (Sprague-Dawley rats [1]; rats): 4.0 | Adverse reaction: Convulsions (Sprague-Dawley rats [2]): 0 | Adverse reaction: Cough, broken-winded (Sprague-Dawley rats [2]): 0 | Adverse reaction: Euphoria (Sprague-Dawley rats [2]): 0 | Adverse reaction: Slower breathing, Tetany convulsion (Sprague-Dawley rats [2]): 2 | Adverse reaction: Systemic stiffness, Convulsions, Opisthotonus (Sprague-Dawley rats [2]): 0 | Adverse reaction: Tongue stretching (Sprague-Dawley rats [2]): 0 | Adverse reaction: Tremor (Sprague-Dawley rats [2]): 0 | Adverse reaction: the four limbs rigidity (Sprague-Dawley rats [2]): 2 | Onset time (Sprague-Dawley rats [2]): <30 s | Righting reflex duration (Sprague-Dawley rats [2]): 8.53 ± 1.52 min | Sedation duration (Sprague-Dawley rats [2]): 14.77 ± 3.50 min | Corticosterone as an indicator to determine the presence of inhibition (H295R cell line [3]): 0 | Cortisol as an indicator to determine the presence of inhibition (H295R cell line [3]): 0 | EC50 (H295R cell line [3]; [15]): > 10 µM | EC50 (H295R cell line [3]; read-out: EC50 (Cortisol)): > 10 µM | ED50 (Sprague-Dawley rats [4]; Rattus norvegicus): 5.51 mg/kg | Minimal lethal dose (Sprague-Dawley rats [4]; [14]): 28 mg/kg | Approximate therapeutic index (Sprague-Dawley rats [4]; rats): 5 | inhibitory effect on the circulatory function (MAP, HR) [5]: significant inhibition of the circulatory function | Corticosterone as an indicator to determine the presence of inhibition (H295R cell line [6]): 0 | Cortisol as an indicator to determine the presence of inhibition (H295R cell line [6]): 0 | EC50 (H295R cell line [6]; [15]): > 10 µM | EC50 (H295R cell line [6]; read-out: EC50 (Cortisol)): > 10 µM | ED50 (Sprague-Dawley rats [7]; Rattus norvegicus): 5.51 mg/kg | Minimal lethal dose (Sprague-Dawley rats [7]; [14]): 28 mg/kg | Approximate therapeutic index (Sprague-Dawley rats [7]; rats): 5 | effect on the circulatory function (MAP, HR) [8]: significant inhibition on the circulatory system function | Adverse reaction: Convulsions (Sprague-Dawley rats [9]): 0 | Adverse reaction: Cough, broken-winded (Sprague-Dawley rats [9]): 0 | Adverse reaction: Euphoria (Sprague-Dawley rats [9]): 0 | Adverse reaction: Four limbs rigidity (Sprague-Dawley rats [9]): 1 | Adverse reaction: Slower breathing, Tetany convulsion (Sprague-Dawley rats [9]): 2 | Adverse reaction: Systemic stiffness, Convulsions, Opisthotonus (Sprague-Dawley rats [9]): 0 | Adverse reaction: Tongue stretching (Sprague-Dawley rats [9]): 0 | Adverse reaction: Tremor (Sprague-Dawley rats [9]): 2 | Onset time (Sprague-Dawley rats [9]): <30 s | Righting reflex duration (Sprague-Dawley rats [9]): 8.53 ± 1.52 min | Sedation duration (Sprague-Dawley rats [9]): 14.77 ± 3.50 min | inhibitory effect on the circulatory function (MAP, HR) [10]: significant inhibition of the circulatory function | effect on the circulatory function (MAP, HR) [11]: significant inhibition on the circulatory system function | Onset time (Sprague-Dawley rats [12]): 0.19 ± 0.03 min | Righting reflex duration (Sprague-Dawley rats [12]): 8.36 ± 2 min | Types and incidence of adverse reactions (Sprague-Dawley rats [12]; (animals affected/animals)): Intermittent Tremor(6/8),; also recorded: Bucking (5/8),; also recorded: Tongue stretching(4/8),; also recorded: Forelimb rigidity (2/8),; also recorded: Hindlimb rigidity(2/8) | ED50 (Sprague-Dawley rats [13]; Rattus norvegicus): 5.01 mg/kg | Minimal lethal dose (Sprague-Dawley rats [13]; [14]): 22.6 mg/kg | Approximate therapeutic index (Sprague-Dawley rats [13]; rats): 4.0
